Results on 120 compounds are retold here after a melting point compilation (Tetko et al.).

For orientation: melting point means the temperature, or range, at which the solid turns liquid. `COc1ccc(C)cc1-c1nnc(S)n1N` gave a melting point of 247 to 249 °C.

`COc1ccc2[nH]c3c(c2c1)C(=O)CCC3` came in with a melting point of 269 to 271 °C.

The compound `Cc1cccc(-c2nonc2N)c1` returned a melting point of 77 to 79 °C.

`COc1cc(C=O)ccc1SC` returned a melting point of 45 to 47 °C.

Compound `N#Cc1c(F)cccc1Sc1ccccc1` came in with a melting point of 108 to 110 °C.

`Cc1cc(O)nc(NN)n1` displayed a melting point of 213 to 215 °C.

In the case of `Nc1[nH]nc(-c2ccsc2)c1-c1ccc2c(c1)OCO2`, the melting point fell in the range of 79 to 81 °C.

`O=C(O)c1ccc(Oc2cccc(Br)c2)cc1`: the melting point lay within 151 to 153 °C.

The compound `ClCc1nc2cc(Cl)ccc2n1Cc1ccccc1` showed a melting point of 105 to 115 °C.

Take `O=C(O)c1nc(=O)[nH][nH]1`: the melting point was 202 to 204 °C.

In the case of `CCOC(=O)c1cnc2c(C)cc(C)cc2c1Cl`, the melting point was in the range of 72 to 74 °C.

For `N#Cc1cccc(NC(=O)NC2CC2)c1`, the melting point lay in the range of 139 to 141 °C.

In turn, `O=S(=O)(Nc1ccc2cn[nH]c2c1)c1ccc2c(c1)CCC2` gave a melting point of 168 to 170 °C.

Compound `Cc1ccc(S)nc1` showed a melting point of 199 to 201 °C.

As for `Cc1cccc([N+](=O)[O-])c1C(=O)n1ccnc1`, the melting point fell in the range of 104 to 106 °C.

`COc1ccc(COCc2cccc(N)c2)cc1` showed a melting point of 55 to 57 °C.

For `CCN(CC)S(=O)(=O)c1ccc2c(c1)CCCN2`, the melting point was 131 to 133 °C.

For `O=c1[nH]cnc2c1oc1ccccc12`, the melting point was 300 to 302 °C.

Compound `CC1(C)Cc2ccccc2C1=O` had a melting point of 41 to 43 °C.

Consider `COc1ccc(CC(N)c2ccc(OC)cc2)cc1` (stereo not given), for which the melting point is 175 to 177 °C.

Take `CC(=O)c1cccc(NS(C)(=O)=O)c1`: the melting point is 91 to 93 °C.

Consider `NCC(O)COc1ccc(C(F)(F)F)cc1` (stereo not given), for which the melting point fell in the range of 98 to 100 °C.

For the compound `O=C(O)C1(c2ccc(Cl)c(Cl)c2)CCC1`, the melting point lay within 116 to 118 °C.

As to `CCOC(=O)Nc1nc2ccc(N)cc2s1`, the melting point was in the range of 339 to 341 °C.

Compound `O=C1C=CC(=O)N1CCO` had a melting point of 59 to 61 °C.

`N#Cc1cccc(CN2C(=O)CCc3ccccc32)c1` showed a melting point of 119 to 121 °C.

`O=C(CCl)NCc1ccccc1F` gave a melting point of 79 to 81 °C.

Consider `O=C1CSc2ccc(C(=O)O)cc2N1`, for which the melting point lay within 251 to 253 °C.

In turn, `COc1ccc(CCCC(=O)O)cc1F` showed a melting point of 63 to 65 °C.

Regarding `O=C(CCl)NC(c1ccc(F)cc1)c1cccs1` (stereo not given), the melting point fell in the range of 124 to 126 °C.

On to `CS(=O)(=O)N1CCCC(CCl)C1` (stereo not given), for which the melting point was 64 to 66 °C.

Turning to `CN1CCN(c2cccc(Cl)c2C=O)CC1`, the melting point was 80 to 82 °C.

Consider `O=C(O)C1CS(=O)(=O)c2ccccc2O1` (stereo not given), for which the melting point lay within 239 to 241 °C.

As to `COc1ccc(CNC(=O)OC(C)(C)C)c(OC)c1`, the melting point is 59 to 61 °C.

`O=C(O)C=Cc1cn(-c2ccccc2)nc1-c1ccccc1` had a melting point of 207 to 209 °C.

Regarding `Sc1nnc(-c2ccncc2)[nH]1`, the melting point lay within 308 to 313 °C.

`COc1ccccc1N1CC(C(=O)O)CC1=O` (stereo not given) registered a melting point of 139 to 141 °C.

Take `CCCCOc1ccc(C=CC(=O)O)cc1OCC`: the melting point fell in the range of 109 to 111 °C.

For `CCc1ccc(-c2nn(-c3ccccc3C)cc2C(=O)O)cc1`, the melting point was in the range of 177 to 179 °C.

`O=[N+]([O-])c1ccc(S(=O)(=O)Cl)c(Cl)c1` yielded a melting point of 75 to 77 °C.

Compound `COC(=O)C(=O)CC(=O)c1ccccc1F` had a melting point of 81 to 83 °C.

The compound `O=C(O)Cc1ccc(NC(=O)C2CCCC2)cc1` showed a melting point of 173 to 175 °C.

Compound `NS(=O)(=O)c1ccc2c(c1)C(=O)NCC2` had a melting point of 240 to 242 °C.

`O=C(O)c1cc2cccc(F)c2o1` displayed a melting point of 242 to 244 °C.

Regarding `COc1ccc(Br)c(C#N)c1`, the melting point lay within 101 to 103 °C.

Compound `COc1ccccc1S(N)(=O)=O` came in with a melting point of 169 to 171 °C.

`CC(Nc1ccc(N(C)C)cc1)c1ccccn1` (stereo not given) returned a melting point of 121 to 123 °C.

In turn, `CN(C)S(=O)(=O)c1cccc(N)c1` came in with a melting point of 125 to 127 °C.

`CC(Cl)C(=O)Nc1c(F)c(F)c(F)c(F)c1F` (stereo not given) had a melting point of 123 to 125 °C.

For the compound `N#Cc1ccc(Oc2ccc(N)cc2)cc1`, the melting point fell in the range of 110 to 112 °C.

Turning to `Nc1sc2c(c1C(=O)c1ccc(Cl)cc1)CCCC2`, the melting point lay in the range of 139 to 141 °C.

`COc1ccc(NCCCC(=O)O)cc1` came in with a melting point of 204 to 206 °C.

The compound `Cn1nnc2cc(CCl)ccc21` came in with a melting point of 83 to 85 °C.

`O=C1CC(c2ccccc2)=NN1c1ccccc1`: the melting point lay within 138 to 140 °C.

Compound `NC(=S)c1cccc(O)c1` had a melting point of 152 to 154 °C.

In the case of `O=C(O)CCCCc1cccc(O)c1`, the melting point was 115 to 117 °C.

With `CN(C)c1cc(C(=O)O)c2ccccc2n1`, the melting point was 259 to 261 °C.

On to `O=C(O)c1nccnc1C(=O)Nc1ccc(F)cc1`, for which the melting point lay within 177 to 179 °C.

Turning to `O=C(c1ccc(Cl)c([N+](=O)[O-])c1)N1CCCCC1`, the melting point lay within 74 to 76 °C.

`Cc1nc(-c2cccc(O)c2)no1` came in with a melting point of 126 to 128 °C.

Regarding `COc1cccc(CC2(C(=O)O)CC3CCC2C3)c1` (stereo not given), the melting point was 67 to 69 °C.

`CSc1nn(C)c(N)c1C(N)=O` gave a melting point of 173 to 175 °C.

In turn, `O=C(O)C=Cc1cc(Br)c2c(c1)OCCO2` showed a melting point of 267 to 269 °C.

`CC(O)c1ccc(Oc2ccc(Br)cc2)cc1` (stereo not given) yielded a melting point of 67 to 69 °C.

The compound `COc1cc(C=O)cc(OC)c1OC(F)F` gave a melting point of 115 to 117 °C.

Turning to `O=C(O)c1cc2c([nH]c1=O)CCC2`, the melting point is 273 to 275 °C.

In turn, `Nc1ccccc1C(=O)Nc1ccc(Cl)cc1` displayed a melting point of 44 to 45 °C.

In the case of `CCCCS(=O)(=O)N1CCCCC1C(=O)O` (stereo not given), the melting point fell in the range of 78 to 80 °C.

`COC(=O)c1ccc(NS(=O)(=O)c2ccc(C)cc2)cc1` gave a melting point of 150 to 152 °C.

`O=C(O)CCC(=O)N1CCSc2ccccc21` displayed a melting point of 134 to 136 °C.

`Cc1ccc(C(=O)CC#N)c(C)c1` displayed a melting point of 78 to 80 °C.

In turn, `O=Ic1ccccc1` returned a melting point of 199 to 201 °C.

The compound `O=C(O)c1cc(Cl)ccn1` gave a melting point of 170 to 174 °C.

Regarding `C=CCNc1nc(C(=O)OCC)cs1`, the melting point is 84 to 86 °C.

`NCc1noc(-c2ccccc2)n1` showed a melting point of 115 to 117 °C.

Consider `COc1ccc(OC)c(NC(=O)CCl)c1`, for which the melting point lay within 169 to 171 °C.

`Nc1ccccc1-c1nc(C2CC2)no1` came in with a melting point of 84 to 86 °C.

Compound `Cc1sc2nc(-c3cccs3)nc(Cl)c2c1C` gave a melting point of 130 to 137 °C.

For `CC(C)(C)C(=O)Nc1cccc(C(=O)O)c1`, the melting point lay in the range of 211 to 213 °C.

Compound `COc1ccc2[nH]c(C)c(C(=O)CCl)c2c1` displayed a melting point of 224 to 226 °C.

`c1ccc(COc2ccc3[nH]ncc3c2)cc1` had a melting point of 175 to 177 °C.

With `CCCCCCn1nc(C(=O)O)c2ccccc2c1=O`, the melting point lay in the range of 124 to 126 °C.

In turn, `O=C(O)c1ccccc1CN1C(=O)CNC1=O` registered a melting point of 201 to 203 °C.

Turning to `Nc1ccc(F)c(NC(=O)CCN2CCOCC2)c1`, the melting point was in the range of 119 to 121 °C.

As for `O=C(O)Cc1coc2ccc3ccccc3c12`, the melting point was 166 to 168 °C.

`COc1ccc(-c2ccncc2C=O)cc1`: the melting point lay within 82 to 84 °C.

`COc1ccsc1C(N)=O` registered a melting point of 147 to 149 °C.

Turning to `O=C(CCl)N(Cc1ccc(F)cc1)C12CC3CC(CC(C3)C1)C2`, the melting point was 129 to 131 °C.

Regarding `O=C(CCN1CCOCC1)c1ccc2ccccc2c1`, the melting point was 67 to 69 °C.

On to `c1ccc2c(-c3nc4ccccc4[nH]3)cccc2c1`, for which the melting point fell in the range of 264 to 266 °C.

Regarding `Cc1cccn2cc(COc3ccc(C=O)cc3)nc12`, the melting point is 122 to 124 °C.

In the case of `Oc1ncnc(Cl)c1I`, the melting point was 274 to 276 °C.

As for `O=C(O)C=Cc1ccc(S(=O)(=O)N2CCOCC2)cc1`, the melting point fell in the range of 249 to 251 °C.

`CNCCCc1cc(-c2ccc(F)cc2)no1` displayed a melting point of 146 to 148 °C.

Regarding `Cc1cc(C(N)=S)ccc1F`, the melting point was in the range of 89 to 91 °C.

`Cc1nc(-c2ccsc2)sc1C(=O)O` returned a melting point of 235 to 237 °C.

Compound `CNc1ncc(Br)cn1` had a melting point of 116 to 118 °C.

With `O=C(O)CCNS(=O)(=O)C=Cc1ccccc1`, the melting point was 119 to 123 °C.

`O=Cc1c(-c2ccccc2)nc2sccn12` returned a melting point of 128 to 130 °C.

Take `NS(=O)(=O)Cc1ccccc1[N+](=O)[O-]`: the melting point was in the range of 131 to 133 °C.

Compound `O=C1CNC2(CCCCC2)C(=O)N1` yielded a melting point of 184 to 186 °C.

The compound `Nc1nonc1C(=O)N1CCCC1` returned a melting point of 192 to 194 °C.

`O=C(O)C1(Cc2nc3ccccc3s2)CCCC1`: the melting point was 155 to 157 °C.

In turn, `CCOC(=O)c1cc(N)c2c(c1)OCO2` showed a melting point of 68 to 70 °C.

Regarding `COc1cc(CN)cc(OC)c1O`, the melting point is 149 to 151 °C.

In turn, `Cc1nc(-c2ccc(C)c(NC(=O)CCl)c2)n[nH]1` came in with a melting point of 297 to 299 °C.

Consider `NNC(=O)c1cc2c(s1)CCCCC2`, for which the melting point lay within 253 to 255 °C.

Take `COc1cc(S(N)(=O)=O)ccc1[N+](=O)[O-]`: the melting point is 149 to 151 °C.

In the case of `NC(=O)Cc1ccccc1F`, the melting point was in the range of 158 to 160 °C.

As to `CCNC(=O)c1ccc(Cl)nc1`, the melting point lay within 136 to 138 °C.

In turn, `NC(=O)N1CCCC1` registered a melting point of 222 to 224 °C.

`Cc1cc(C(=O)O)c2ccc(F)cc2n1` had a melting point of 267 to 269 °C.

`O=C(CCl)N1CCc2cc(S(=O)(=O)N3CCCCC3)ccc21` registered a melting point of 185 to 187 °C.

As for `Cc1cc2cn[nH]c2cc1N`, the melting point lay in the range of 219 to 221 °C.

Regarding `Nc1ccc(S(=O)(=O)Nc2ccc(Cl)c(C(F)(F)F)c2)cc1`, the melting point fell in the range of 144 to 146 °C.

`CC(C)(CC(=O)O)NC(=O)OC(C)(C)C`: the melting point lay within 89 to 91 °C.

On to `COc1ccc(C(=O)O)cc1-c1ccn(C)n1`, for which the melting point is 179 to 181 °C.

The compound `NC(=O)c1cccc2c1CCCN2` had a melting point of 172 to 174 °C.

`COC(=O)Cc1cc(O)n[nH]1` had a melting point of 143 to 145 °C.

In the case of `Fc1ccc(COc2cccc(N3CCNCC3)c2)cc1`, the melting point is 84 to 86 °C.
